Results taken from PubChem BioAssay (NCI).
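How tested: cells in 96-well plates exposed to compound for 48 hours at five concentrations. TGI marks complete inhibition of growth.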

Experiments:
Assay in all cases: NCI tumour cell line growth inhibition, 48 h
SF-295 CNS = test system: SF-295 CNS
SN12C renal = test system: SN12C renal
SF-539 CNS = test system: SF-539 CNS
PC-3 prostate = test system: PC-3 prostate
MDA-MB-231 breast = test system: MDA-MB-231 breast
NCI-H522 lung = test system: NCI-H522 lung
SK-MEL-2 melanoma = test system: SK-MEL-2 melanoma
DU-145 prostate = test system: DU-145 prostate
OVCAR-4 ovarian = test system: OVCAR-4 ovarian
RXF 393 renal = test system: RXF 393 renal
T-47D breast = test system: T-47D breast
MDA-N = test system: MDA-N
UO-31 renal = test system: UO-31 renal
NCI/ADR-RES ovarian = test system: NCI/ADR-RES ovarian
UACC-257 melanoma = test system: UACC-257 melanoma
MCF7 breast = test system: MCF7 breast
A498 renal = test system: A498 renal
MOLT-4 leukemia = test system: MOLT-4 leukemia
U251 CNS = test system: U251 CNS
BT-549 breast = test system: BT-549 breast
HL-60(TB) leukemia = test system: HL-60(TB) leukemia
SNB-75 CNS = test system: SNB-75 CNS
A549 NSCLC = test system: A549 NSCLC
SK-MEL-5 melanoma = test system: SK-MEL-5 melanoma
OVCAR-8 ovarian = test system: OVCAR-8 ovarian
CAKI-1 renal = test system: CAKI-1 renal
SK-MEL-28 melanoma = test system: SK-MEL-28 melanoma
HOP-62 NSCLC = test system: HOP-62 NSCLC
LOX IMVI melanoma = test system: LOX IMVI melanoma
SF-268 CNS = test system: SF-268 CNS
M14 melanoma = test system: M14 melanoma
OVCAR-5 ovarian = test system: OVCAR-5 ovarian
EKVX NSCLC = test system: EKVX NSCLC
CCRF-CEM leukemia = test system: CCRF-CEM leukemia
SW-620 colon = test system: SW-620 colon
UACC-62 melanoma = test system: UACC-62 melanoma
SK-OV-3 ovarian = test system: SK-OV-3 ovarian
SNB-19 CNS = test system: SNB-19 CNS
786-0 renal = test system: 786-0 renal
HCT-15 colon = test system: HCT-15 colon
MDA-MB-435 = test system: MDA-MB-435
IGROV1 ovarian = test system: IGROV1 ovarian
NCI-H23 lung = test system: NCI-H23 lung
HCT-116 colon = test system: HCT-116 colon
HS 578T breast = test system: HS 578T breast
MALME-3M melanoma = test system: MALME-3M melanoma
ACHN renal = test system: ACHN renal
COLO 205 colon = test system: COLO 205 colon
NCI-H226 lung = test system: NCI-H226 lung
KM12 colon = test system: KM12 colon
TK-10 renal = test system: TK-10 renal
HT29 colon = test system: HT29 colon
K-562 leukemia = test system: K-562 leukemia
HCC-2998 colon = test system: HCC-2998 colon
SR leukemia = test system: SR leukemia
RPMI-8226 leukemia = test system: RPMI-8226 leukemia
NCI-H460 lung = test system: NCI-H460 lung
OVCAR-3 ovarian = test system: OVCAR-3 ovarian

`CCSc1cc(C(=O)OC)c2n(c1=O)CCCC2` showed a TGI (SF-295 CNS) of over 100 µM, a TGI (SN12C renal) of over 100 µM and a TGI (SF-539 CNS) of over 100 µM. It also gave a TGI (PC-3 prostate) of over 100 µM, a TGI (MDA-MB-231 breast) of over 100 µM and a TGI (NCI-H522 lung) of over 100 µM. The TGI (SK-MEL-2 melanoma) was over 100 µM, the TGI (DU-145 prostate) was over 100 µM and the TGI (OVCAR-4 ovarian) was over 100 µM. The TGI (RXF 393 renal) was over 100 µM, the TGI (T-47D breast) was over 100 µM and the TGI (MDA-N) was over 100 µM. For the same molecule, the TGI (UO-31 renal) was over 100 µM, the TGI (NCI/ADR-RES ovarian) was over 100 µM and the TGI (UACC-257 melanoma) was over 100 µM. The TGI (MCF7 breast) was over 100 µM, the TGI (A498 renal) was over 100 µM and the TGI (MOLT-4 leukemia) was over 100 µM. The TGI (U251 CNS) was over 100 µM, the TGI (BT-549 breast) was over 100 µM and the TGI (HL-60(TB) leukemia) was over 100 µM. It also gave a TGI (SNB-75 CNS) of over 100 µM, a TGI (A549 NSCLC) of over 100 µM and a TGI (SK-MEL-5 melanoma) of over 100 µM. The TGI (OVCAR-8 ovarian) was over 100 µM, the TGI (CAKI-1 renal) was over 100 µM and the TGI (SK-MEL-28 melanoma) was over 100 µM. The TGI (HOP-62 NSCLC) was over 100 µM, the TGI (LOX IMVI melanoma) was over 100 µM and the TGI (SF-268 CNS) was over 100 µM. For the same molecule, the TGI (M14 melanoma) was over 100 µM, the TGI (OVCAR-5 ovarian) was over 100 µM and the TGI (EKVX NSCLC) was over 100 µM. The TGI (CCRF-CEM leukemia) was over 100 µM, the TGI (SW-620 colon) was over 100 µM and the TGI (UACC-62 melanoma) was over 100 µM. The TGI (SK-OV-3 ovarian) was over 100 µM, the TGI (SNB-19 CNS) was over 100 µM and the TGI (786-0 renal) was over 100 µM. The TGI (HCT-15 colon) was over 100 µM, the TGI (MDA-MB-435) was over 100 µM and the TGI (IGROV1 ovarian) was over 100 µM. The TGI (NCI-H23 lung) was over 100 µM, the TGI (HCT-116 colon) was over 100 µM and the TGI (HS 578T breast) was over 100 µM. It also gave a TGI (MALME-3M melanoma) of over 100 µM, a TGI (ACHN renal) of over 100 µM and a TGI (COLO 205 colon) of over 100 µM. For the same molecule, the TGI (NCI-H226 lung) was over 100 µM, the TGI (KM12 colon) was over 100 µM and the TGI (TK-10 renal) was over 100 µM. For the same molecule, the TGI (HT29 colon) was over 100 µM.
`CC1=CC(O)(c2ccccc2)C(N2CCOCC2)N1O` (centres undefined) showed a TGI (SF-295 CNS) of over 100 µM, a TGI (SN12C renal) of over 100 µM and a TGI (SF-539 CNS) of over 100 µM. It also gave a TGI (PC-3 prostate) of over 100 µM, a TGI (MDA-MB-231 breast) of over 100 µM and a TGI (NCI-H522 lung) of over 100 µM. For the same molecule, the TGI (SK-MEL-2 melanoma) was over 100 µM, the TGI (K-562 leukemia) was over 100 µM and the TGI (OVCAR-4 ovarian) was over 100 µM. For the same molecule, the TGI (T-47D breast) was over 100 µM, the TGI (MDA-N) was over 100 µM and the TGI (UO-31 renal) was over 100 µM. The TGI (NCI/ADR-RES ovarian) was over 100 µM, the TGI (UACC-257 melanoma) was over 100 µM and the TGI (HCC-2998 colon) was over 100 µM. It also gave a TGI (MCF7 breast) of over 100 µM, a TGI (MOLT-4 leukemia) of over 100 µM and a TGI (U251 CNS) of over 100 µM. For the same molecule, the TGI (BT-549 breast) was over 100 µM, the TGI (A549 NSCLC) was over 100 µM and the TGI (SK-MEL-5 melanoma) was over 100 µM. It also gave a TGI (OVCAR-8 ovarian) of over 100 µM, a TGI (CAKI-1 renal) of over 100 µM and a TGI (SK-MEL-28 melanoma) of over 100 µM. It also gave a TGI (HOP-62 NSCLC) of over 100 µM, a TGI (LOX IMVI melanoma) of over 100 µM and a TGI (SF-268 CNS) of over 100 µM. For the same molecule, the TGI (M14 melanoma) was over 100 µM, the TGI (OVCAR-5 ovarian) was over 100 µM and the TGI (EKVX NSCLC) was over 100 µM. The TGI (CCRF-CEM leukemia) was over 100 µM, the TGI (SW-620 colon) was over 100 µM and the TGI (SK-OV-3 ovarian) was over 100 µM. For the same molecule, the TGI (SNB-19 CNS) was over 100 µM, the TGI (786-0 renal) was over 100 µM and the TGI (HCT-15 colon) was over 100 µM. The TGI (MDA-MB-435) was over 100 µM, the TGI (SR leukemia) was over 100 µM and the TGI (RPMI-8226 leukemia) was over 100 µM. For the same molecule, the TGI (IGROV1 ovarian) was over 100 µM, the TGI (NCI-H460 lung) was over 100 µM and the TGI (NCI-H23 lung) was over 100 µM. For the same molecule, the TGI (OVCAR-3 ovarian) was over 100 µM, the TGI (HCT-116 colon) was over 100 µM and the TGI (HS 578T breast) was over 100 µM. The TGI (MALME-3M melanoma) was over 100 µM, the TGI (ACHN renal) was over 100 µM and the TGI (COLO 205 colon) was over 100 µM. It also gave a TGI (NCI-H226 lung) of over 100 µM, a TGI (KM12 colon) of over 100 µM and a TGI (TK-10 renal) of over 100 µM. It also gave a TGI (HT29 colon) of over 100 µM.
`CNC(=O)Oc1ccc(C(=S)Nc2ccc(Br)cc2)cc1` showed a TGI (SF-539 CNS) of 47.2 µM, a TGI (PC-3 prostate) of 83.3 µM and a TGI (NCI-H522 lung) of 31.2 µM. For the same molecule, the TGI (SK-MEL-2 melanoma) was 46 µM, the TGI (K-562 leukemia) was 76.1 µM and the TGI (DU-145 prostate) was 81 µM. For the same molecule, the TGI (OVCAR-4 ovarian) was 77.1 µM, the TGI (T-47D breast) was 80.2 µM and the TGI (MDA-N) was 57.3 µM. It also gave a TGI (UO-31 renal) of 60 µM, a TGI (NCI/ADR-RES ovarian) of 54.7 µM and a TGI (UACC-257 melanoma) of over 100 µM. For the same molecule, the TGI (HCC-2998 colon) was 41.4 µM, the TGI (MCF7 breast) was 83.4 µM and the TGI (A498 renal) was 53.3 µM. The TGI (MOLT-4 leukemia) was 40.4 µM, the TGI (U251 CNS) was 74.8 µM and the TGI (BT-549 breast) was 44.2 µM. It also gave a TGI (HL-60(TB) leukemia) of 24.8 µM, a TGI (A549 NSCLC) of over 100 µM and a TGI (SK-MEL-5 melanoma) of 34.9 µM. It also gave a TGI (OVCAR-8 ovarian) of 22.4 µM, a TGI (CAKI-1 renal) of 51.3 µM and a TGI (SK-MEL-28 melanoma) of 62.7 µM. It also gave a TGI (HOP-62 NSCLC) of over 100 µM, a TGI (LOX IMVI melanoma) of 27 µM and a TGI (SF-268 CNS) of over 100 µM. It also gave a TGI (M14 melanoma) of 46.4 µM, a TGI (OVCAR-5 ovarian) of 77.4 µM and a TGI (EKVX NSCLC) of 42 µM. For the same molecule, the TGI (CCRF-CEM leukemia) was 18.3 µM, the TGI (SW-620 colon) was over 100 µM and the TGI (UACC-62 melanoma) was 30.1 µM. The TGI (SK-OV-3 ovarian) was over 100 µM, the TGI (SNB-19 CNS) was over 100 µM and the TGI (786-0 renal) was 60.5 µM. For the same molecule, the TGI (HCT-15 colon) was 43.1 µM, the TGI (MDA-MB-435) was 63.9 µM and the TGI (SR leukemia) was 46.1 µM. For the same molecule, the TGI (RPMI-8226 leukemia) was over 100 µM, the TGI (IGROV1 ovarian) was 18.7 µM and the TGI (NCI-H23 lung) was 38.3 µM. For the same molecule, the TGI (OVCAR-3 ovarian) was 49.4 µM, the TGI (HCT-116 colon) was 46.1 µM and the TGI (HS 578T breast) was over 100 µM. It also gave a TGI (MALME-3M melanoma) of 98.8 µM, a TGI (ACHN renal) of over 100 µM and a TGI (COLO 205 colon) of 39.2 µM. The TGI (KM12 colon) was 35.9 µM and the TGI (HT29 colon) was 44.8 µM.
